Reference: US20230348622A1, “USE OF LANCL1 AND ANTIBODIES THEREOF AS A DIAGNOSTIC AND THERAPEUTIC TARGET FOR THE MANAGEMENT AND TREATMENT OF CANCER” (The University of Hong Kong, priority 2022, published 2023)

Tested on: PLC/PRF/5 and MHCC-97L cells
Assay: Intracellular ROS level in LANCL1-KD HCC cells
Assay type: cell-based, human
Conditions: addition of oxidizing agent

In the case of `CC(C)(C)OO` [TBHP, tert-Butyl hydroperoxide], the ROS levels was “significantly increased”.
